According to patent US11439633B2, “Tetrahydroquinoline derivatives as P2X7 receptor antagonists” (RaQualia Pharma Inc., priority 2017, dated 2022):

Each molecule was assayed against human P2X7 (Homo sapiens (Human), UniProt Q99572) (assay: Human P2X7 functional assay (Ca2+ influx, Fluo-4, FDSS, BzATP activation)). Conditions: antagonistic activity with respect to the human P2X7 receptor; BzATP final concentration 80 microM; 7-point dose-response.
Sequence of human P2X7 (Q99572 whole entry): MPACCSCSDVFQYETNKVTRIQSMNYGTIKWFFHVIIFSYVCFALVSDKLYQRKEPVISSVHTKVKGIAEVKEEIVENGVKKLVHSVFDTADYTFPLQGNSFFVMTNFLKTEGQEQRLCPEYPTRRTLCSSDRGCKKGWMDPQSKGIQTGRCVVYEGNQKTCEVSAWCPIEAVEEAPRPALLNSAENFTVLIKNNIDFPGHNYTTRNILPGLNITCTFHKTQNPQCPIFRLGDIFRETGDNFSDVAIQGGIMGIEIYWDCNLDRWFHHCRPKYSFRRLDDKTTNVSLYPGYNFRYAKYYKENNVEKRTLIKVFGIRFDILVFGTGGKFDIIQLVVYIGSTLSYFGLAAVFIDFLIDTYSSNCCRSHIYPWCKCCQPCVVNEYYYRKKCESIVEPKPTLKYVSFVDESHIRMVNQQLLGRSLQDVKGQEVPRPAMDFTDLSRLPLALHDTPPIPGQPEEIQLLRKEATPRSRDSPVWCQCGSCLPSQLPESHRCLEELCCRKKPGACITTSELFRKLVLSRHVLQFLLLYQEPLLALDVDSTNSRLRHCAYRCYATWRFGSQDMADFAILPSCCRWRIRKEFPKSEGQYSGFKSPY
Type: cell-based
Protocol: Human P2X7 Functional Assay
(§1) The functional activity of compounds was determined by measuring changes in intracellular calcium concentration using a Ca^2+-sensitive fluorescent dye, Fluo-4 (Molecular Probes). The changes in fluorescent signal were monitored by the cell imaging technology by Hamamatsu Photonics's Functional Drug Screening System (FDSS). Increases in intracellular Ca^2+ concentration were readily detected upon activation with BzATP.
(§2) HEK293 cells stably expressing human P2X7 (GenBank accession number BC011913) carrying a C-terminal FLAG tag were grown in T225 flasks, in a 5% CO2 humidified incubator to about 80% confluence. Media composition consisted of Dulbecco's Modified Eagle Medium (high glucose), 10% fetal bovine serum ([…]), 100 units/microM Penicillin, 100 microg/mL Streptomycin and 250 microg/mL Geneticine.
1. Plate-out HEK293-human P2X7 cells (40 microL medium containing 10,000 cells per well) into poly-D-lysine coated 384-well plates (Corning) at 24 h prior to assay.
2. Incubate at 37° C. in 5% CO2.
3. Incubate the plate at 37° C. in 5% CO2 for 1 h.
5. Test compounds were prepared at 100× the test concentration in DMSO by serial dilution with Biomek-FX liquid handling instrument. 33× diluted compound solutions in assay buffer were prepared in intermediate compound plate with Biomek-NX liquid handling instrument. A further 3× dilution occurred in below steps 6 and 7.
6. Add 20 microL of 33× diluted compound solutions into each well and leave the plate for 10 min under the dark at room temperature.
7. Measure activity by FDSS as follows: • Set the assay plate on the stacker of FDSS. • Start the detection of fluorescence intensity at 540 nm by 480 nm exicitation. • After 30 seconds, add 20 microL of assay buffer containing 240 microM BzATP (final concentration 80 microM).
IC50 values for compounds of the present invention were determined from 7-point dose-response studies. Curves were generated using the average of duplicate wells for each data point. Finally, the IC50 values are calculated with the best-fit dose curve determined by XLfit (ID Business Solutions Ltd.).
`O=C(NCc1c(Cl)cc(Cl)cc1CO)C1CCC(O)c2ncccc21` (stereo not drawn) [Example 9, N-(2,4-dichloro-6-(hydroxymethyl)benzyl)-8-hydroxy-5,6,7,8-tetrahydroquinoline-5-carboxamide] was tested, and the IC50 was less than 50 nM. In the case of `Cc1cc(Cl)cc(Cl)c1CNC(=O)[C@@]1(F)CC[C@@H](O)c2ncccc21` [Example 126, (5R,8R)-N-(2,4-dichloro-6-methylbenzyl)-5-fluoro-8-hydroxy-5,6,7,8-tetrahydroquinoline-5-carboxamide], the IC50 is reported as less than 50 nM. `Cc1cc(Cl)cc(Cl)c1CNC(=O)[C@]1(F)CC[C@H](O)c2ncccc21` [Example 127, (5S,8S)-N-(2,4-dichloro-6-methylbenzyl)-5-fluoro-8-hydroxy-5,6,7,8-tetrahydroquinoline-5-carboxamide] gave an IC50 of less than 50 nM. Work on `O=C(NCc1ccc(F)cc1C(F)(F)F)[C@]1(F)CC[C@H](O)c2ncccc21` [Example 144, (5S,8S)-5-fluoro-N-(4-fluoro-2-(trifluoromethyl)benzyl)-8-hydroxy-5,6,7,8-tetrahydroquinoline-5-carboxamide] yielded an IC50 of less than 50 nM. For `O=C(NCc1c(F)cc(Cl)cc1Cl)[C@]1(F)CC[C@H](O)c2ncccc21` [Example 152, (5S,8S)-N-(2,4-dichloro-6-fluorobenzyl)-5-fluoro-8-hydroxy-5,6,7,8-tetrahydroquinoline-5-carboxamide], the IC50 was less than 50 nM. For `Cc1cccc(Cl)c1CNC(=O)[C@]1(F)CC[C@H](O)c2ncccc21` [Example 161, (5S,8S)-N-(2-chloro-6-methylbenzyl)-5-fluoro-8-hydroxy-5,6,7,8-tetra-hydroquinoline-5-carbox-amide], the IC50 was less than 50 nM. `O=C(NCc1ccc(F)c(F)c1Cl)[C@]1(F)CC[C@H](O)c2ncccc21` [Example 174, (5S,8S)-N-(2-chloro-3,4-difluorobenzyl)-5-fluoro-8-hydroxy-5,6,7,8-tetra-hydroquinoline-5-carboxamide] showed an IC50 of less than 50 nM. With `O=C(NCc1cccc(C(F)(F)F)c1F)[C@]1(F)CC[C@H](O)c2ncccc21` [Example 175, (5S,8S)-5-fluoro-N-(2-fluoro-3-(trifluoromethyl)benzyl)-8-hydroxy-5,6,7,8-tetrahydroquinoline-5-carboxamide] the IC50 was less than 50 nM. `O=C(NCc1cc(Br)ccc1Cl)[C@]1(F)CC[C@H](O)c2ncccc21` [Example 181, (5S,8S)-N-(5-bromo-2-chlorobenzyl)-5-fluoro-8-hydroxy-5,6,7,8-tetra-hydroquinoline-5-carbox-amide] was tested, and the IC50 was less than 50 nM. `O=C(NCc1c(F)cccc1C(F)(F)F)[C@]1(F)CC[C@H](O)c2ncccc21` [Example 186, (5S,8S)-5-fluoro-N-(2-fluoro-6-(trifluoromethyl)benzyl)-8-hydroxy-5,6,7,8-tetrahydroquinoline-5-carboxamide] showed an IC50 of less than 50 nM. In the case of `O=C(NCCc1ccc(Cl)cc1Cl)[C@]1(F)CC[C@H](O)c2ncccc21` [Example 191, (5S,8S)-N-(2,4-dichloro-phenethyl)-5-fluoro-8-hydroxy-5,6,7,8-tetrahydro-quinoline-5-carboxamide], the IC50 is reported as less than 50 nM. `C[C@]1(O)CC[C@@](F)(C(=O)NCc2c(F)cc(Cl)cc2Cl)c2cccnc21` [Example 265, (5S,8S)-N-(2,4-dichloro-6-fluorobenzyl)-5-fluoro-8-hydroxy-8-methyl-5,6,7,8-tetrahydroquinoline-5-carboxamide] gave an IC50 of less than 50 nM. Work on `C[C@]1(O)CC[C@@](F)(C(=O)NCc2c(F)cc(F)cc2Cl)c2cccnc21` [Example 266, (5S,8S)-N-(2-chloro-4,6-difluorobenzyl)-5-fluoro-8-hydroxy-8-methyl-5,6,7,8-tetrahydroquinoline-5-carboxamide] yielded an IC50 of less than 50 nM. `C[C@]1(O)CC[C@@](F)(C(=O)NCc2ccc(Cl)c(F)c2F)c2cccnc21` [Example 267, (5S,8S)-N-(4-chloro-2,3-difluorobenzyl)-5-fluoro-8-hydroxy-8-methyl-5,6,7,8-tetrahydroquinoline-5-carboxamide] gave an IC50 of less than 50 nM. `C[C@]1(O)CC[C@@](F)(C(=O)NC2CC2c2ccc(Cl)cc2Cl)c2cccnc21` (stereo partly drawn) [Example 273, (5S,8S)-N-((trans)-2-(2,4-dichlorophenyl)cyclopropyl)-5-fluoro-8-hydroxy-8-methyl-5,6,7,8-tetrahydro-quinoline-5-carboxamide] showed an IC50 of less than 50 nM. For `CO[C@H]1CC[C@@](F)(C(=O)NCc2c(F)cc(Cl)cc2Cl)c2cccnc21` [Example 335, (5S,8S)-N-(2,4-dichloro-6-fluorobenzyl)-5-fluoro-8-methoxy-5,6,7,8-tetrahydroquinoline-5-carboxamide], the IC50 was less than 50 nM. `CS(=O)(=O)C1CC[C@@](F)(C(=O)NCc2ccc(Cl)cc2Cl)c2cccnc21` (stereo partly drawn) [Example 350, (5S)-N-(2,4-dichlorobenzyl)-5-fluoro-8-(methylsulfonyl)-5,6,7,8-tetrahydroquinoline-5-carboxamide] gave an IC50 of less than 50 nM.

The molecules below were run against rat P2X7 (Rattus norvegicus (Rat), UniProt Q64663) (assay: Rat P2X7 functional assay (Ca2+ influx, Fluo-4, FDSS, BzATP activation)). Conditions: HEK293 cells stably expressing rat P2X7; BzATP final 10 microM; read-out: Antagonistic activities with respect to the rat P2X7 receptor (IC50).
Sequence of rat P2X7 (Q64663 whole entry): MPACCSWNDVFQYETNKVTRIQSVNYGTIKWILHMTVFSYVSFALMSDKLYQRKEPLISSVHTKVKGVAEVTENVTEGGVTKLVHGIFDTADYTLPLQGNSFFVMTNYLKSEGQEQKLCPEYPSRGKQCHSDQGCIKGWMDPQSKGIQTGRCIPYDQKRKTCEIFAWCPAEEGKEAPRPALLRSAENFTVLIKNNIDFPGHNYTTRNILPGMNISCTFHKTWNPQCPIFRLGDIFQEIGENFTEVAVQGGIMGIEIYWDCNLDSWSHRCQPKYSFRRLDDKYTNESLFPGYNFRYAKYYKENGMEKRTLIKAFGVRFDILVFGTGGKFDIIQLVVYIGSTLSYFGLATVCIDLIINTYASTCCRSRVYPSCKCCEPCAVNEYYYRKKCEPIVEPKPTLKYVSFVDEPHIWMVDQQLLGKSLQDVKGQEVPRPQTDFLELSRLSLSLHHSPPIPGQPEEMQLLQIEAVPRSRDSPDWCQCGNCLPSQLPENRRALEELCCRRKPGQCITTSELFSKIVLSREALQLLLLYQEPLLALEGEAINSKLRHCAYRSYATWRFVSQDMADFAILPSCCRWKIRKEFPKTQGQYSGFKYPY
Type: cell-based
Protocol: Rat P2X7 Functional Assay
as §1
as §2, with “rat” for “human”, “NM_019256)” for “BC011913) carrying a C-terminal FLAG tag”, “Corning CellBIND cell culture” for “T225”, “units/[…]” for “units/microM”
1. […]
7. Measure activity by FDSS as follows: • Set the assay plate on the stacker of FDSS. • Start the detection of fluorescence intensity at 540 nm by 480 nm exicitation. • After 30 seconds, add 20 microL of assay buffer containing 30 microM BzATP (final 10 microM).
IC50 values for compounds of the present invention were determined from 7-point dose-response studies. […] Finally, the IC50 values are calculated with the best-fit dose curve determined by XLfit (ID Business Solutions Ltd.).
With `Cc1cc(Cl)cc(Cl)c1CNC(=O)[C@@H]1CC[C@H](O)c2ncccc21` [Example 64, (5R,8S)-N-(2,4-dichloro-6-methylbenzyl)-8-hydroxy-5,6,7,8-tetrahydroquinoline-5-carboxamide] the IC50 was less than 1000 nM.
